From patent US20240228480A1, “PROCESSES FOR PREPARING PYRROLOPYRIDINE-ANILINE COMPOUNDS” (NFLECTION THERAPEUTICS, INC., priority 2021, published 2024)
Entries after “also recorded” stand apart in the source; their conditions may differ. Values belong to the compound of their own block, whether it stands above or below them.

Tests used:
[1] = Stability of Compound (II) suspended in various solvents (slurry experiment, HPLC area %); assay type: physicochemical
Source text: Therefore, the first course of action was to find a suitable solvent in which to suspend compound (II) for the addition to the first mixture of step 6a).

[2] = clinical trials; cited from earlier work

Area % t = 10 min ([1]; solvent 2-Me-THF): 88.0 Area %
Area % t = 2 h ([1]; solvent 2-Me-THF): 77.8 Area %
Area % t = 17 h ([1]; solvent 2-Me-THF): 75.3 Area %
Area % t = 10 min ([1]; solvent DCM): 91.4 Area %
Area % t = 2 h ([1]; solvent DCM): 90.5 Area %
Area % t = 17 h ([1]; solvent DCM): 85.3 Area %
Area % t = 10 min ([1]; solvent Heptane): *68.6 Area %
Area % t = 2 h ([1]; solvent Heptane): 88.4 Area %
Area % t = 17 h ([1]; solvent Heptane): 91.8 Area %
Area % t = 10 min ([1]; solvent IPAc): *81.6 Area %
Area % t = 2 h ([1]; solvent IPAc): 93.3 Area %
Area % t = 17 h ([1]; solvent IPAc): 90.4 Area %
Area % t = 10 min ([1]; solvent MTBE): 92.9 Area %
Area % t = 2 h ([1]; solvent MTBE): *81.6 Area %
Area % t = 17 h ([1]; solvent MTBE): 87.2 Area %
Area % t = 10 min ([1]; solvent MeCN): 87.4 Area %
Area % t = 2 h ([1]; solvent MeCN): 79.2 Area %
Area % t = 17 h ([1]; solvent MeCN): 65.5 Area %
Area % t = 10 min ([1]; solvent THF): 90.0 Area %
Area % t = 2 h ([1]; solvent THF): 83.7 Area %
Area % t = 17 h ([1]; solvent THF): 63.7 Area %
SMILES: Cn1c(Nc2ccc(I)cc2F)c(C(=O)Cl)c2cccnc21 [Compound (II)]
Decomposition when suspended in THF ([1]; suspended in THF for a period of time (e.g., >10 h)): Decomposition of compound (II) was found to occur

SMILES: O=C(NOC[C@H](O)CO)c1ccc(F)c(F)c1Nc1ccc(I)cc1F [PD0325901]
Side effects exhibited [2]: neurological side effects associated with ataxia, confusion, and syncope; also recorded: one or more neurological side effects associated with ataxia, confusion, and syncope
